Experimental data from paper PMC10534724, “Interaction of ALK Inhibitors with Polyspecific Organic Cation Transporters and the Impact of Substrate-Dependent Inhibition on the Prediction of Drug–Drug Interactions” (Pharmaceutics, 2023).

Assays:
hOCT2 [1] = target: T1, hOCT2 (Homo sapiens, UniProt O15244); conditions: cited from earlier work
T1 sequence (O15244 1-555): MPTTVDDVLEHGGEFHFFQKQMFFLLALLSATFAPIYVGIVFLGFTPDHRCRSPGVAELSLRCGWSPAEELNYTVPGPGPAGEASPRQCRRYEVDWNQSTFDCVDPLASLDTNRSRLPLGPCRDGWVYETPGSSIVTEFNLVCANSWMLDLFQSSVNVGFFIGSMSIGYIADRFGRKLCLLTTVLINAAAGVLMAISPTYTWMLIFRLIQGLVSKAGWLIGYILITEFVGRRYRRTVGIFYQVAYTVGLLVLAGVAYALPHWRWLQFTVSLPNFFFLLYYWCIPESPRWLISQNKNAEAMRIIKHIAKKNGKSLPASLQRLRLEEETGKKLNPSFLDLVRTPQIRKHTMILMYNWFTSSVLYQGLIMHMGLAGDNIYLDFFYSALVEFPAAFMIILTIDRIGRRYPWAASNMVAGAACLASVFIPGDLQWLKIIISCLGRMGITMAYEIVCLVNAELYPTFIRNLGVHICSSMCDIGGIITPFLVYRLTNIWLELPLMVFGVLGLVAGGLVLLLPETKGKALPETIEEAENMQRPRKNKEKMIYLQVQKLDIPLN

hMATE2-K = target: T2, hMATE2-K (Homo sapiens, UniProt Q86VL8); test: Inhibition of hMATE2-K-mediated substrate uptake in transfected HEK293 cells (pH 8.0); type: in vitro ADME; conditions: HEK293; 20 µM inhibitor; 1 µM mIBG; 2 min, 37 °C
T2 construct: expressed in transfected cells

hOCT2 [2] = target: T1, hOCT2; test: Inhibition of hOCT2-mediated substrate uptake in transfected HEK293 cells; type: in vitro ADME; design: expressed in transfected cells; conditions: HEK293; 20 µM inhibitor; 1 µM mIBG; 2 min, 37 °C
hOCT1 = target: T3, hOCT1 (Homo sapiens, UniProt O15245); test: Inhibition of hOCT1-mediated substrate uptake in transfected HEK293 cells; type: in vitro ADME; conditions: HEK293; 20 µM inhibitor; 1 µM mIBG; 2 min, 37 °C
T3 construct: expressed in transfected cells
T3 sequence (O15245 1-554): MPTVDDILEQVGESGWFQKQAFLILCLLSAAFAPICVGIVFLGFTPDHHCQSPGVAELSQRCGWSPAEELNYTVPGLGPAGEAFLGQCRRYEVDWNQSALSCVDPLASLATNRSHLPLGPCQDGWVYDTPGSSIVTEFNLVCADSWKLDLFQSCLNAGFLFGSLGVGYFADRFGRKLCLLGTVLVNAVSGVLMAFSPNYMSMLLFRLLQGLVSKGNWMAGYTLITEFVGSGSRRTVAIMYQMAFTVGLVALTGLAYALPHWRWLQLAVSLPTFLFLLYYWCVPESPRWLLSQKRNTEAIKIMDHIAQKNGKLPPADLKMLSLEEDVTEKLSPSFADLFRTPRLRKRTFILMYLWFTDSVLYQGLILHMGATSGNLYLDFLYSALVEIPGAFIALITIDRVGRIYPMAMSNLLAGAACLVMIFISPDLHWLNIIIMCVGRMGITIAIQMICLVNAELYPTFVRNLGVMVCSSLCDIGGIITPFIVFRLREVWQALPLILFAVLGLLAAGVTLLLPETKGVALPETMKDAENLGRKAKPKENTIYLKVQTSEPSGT

hMATE1 = target: T4, hMATE1 (Homo sapiens, UniProt Q96FL8); test: Inhibition of hMATE1-mediated substrate uptake in transfected HEK293 cells (pH 8.0); type: in vitro ADME; conditions: HEK293; 20 µM inhibitor; 1 µM mIBG; 2 min, 37 °C
T4 construct: expressed in transfected cells
T4 sequence (Q96FL8 1-570): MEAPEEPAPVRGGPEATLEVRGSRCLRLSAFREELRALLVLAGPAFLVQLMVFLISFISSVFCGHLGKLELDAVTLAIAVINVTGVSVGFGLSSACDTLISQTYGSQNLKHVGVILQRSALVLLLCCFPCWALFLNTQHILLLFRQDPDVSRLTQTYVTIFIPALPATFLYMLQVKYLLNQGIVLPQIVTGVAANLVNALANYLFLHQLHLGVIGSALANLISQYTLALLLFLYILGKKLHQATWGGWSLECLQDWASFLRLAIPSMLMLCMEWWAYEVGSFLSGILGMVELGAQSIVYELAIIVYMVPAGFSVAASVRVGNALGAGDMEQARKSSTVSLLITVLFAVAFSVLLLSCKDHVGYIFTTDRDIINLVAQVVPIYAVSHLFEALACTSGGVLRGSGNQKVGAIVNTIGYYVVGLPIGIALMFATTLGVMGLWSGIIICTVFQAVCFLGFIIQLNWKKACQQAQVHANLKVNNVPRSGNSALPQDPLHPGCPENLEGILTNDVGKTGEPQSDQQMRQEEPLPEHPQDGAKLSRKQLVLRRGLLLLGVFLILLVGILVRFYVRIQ

hOCT3 = target: T5, hOCT3 (Homo sapiens, UniProt O75751); test: Inhibition of hOCT3-mediated substrate uptake in transfected HEK293 cells; type: in vitro ADME; conditions: HEK293; 20 µM inhibitor; 1 µM mIBG; 2 min, 37 °C; read-out: inhibition of mIBG uptake by hOCT3
T5 construct: expressed in transfected cells
T5 sequence (O75751 1-556): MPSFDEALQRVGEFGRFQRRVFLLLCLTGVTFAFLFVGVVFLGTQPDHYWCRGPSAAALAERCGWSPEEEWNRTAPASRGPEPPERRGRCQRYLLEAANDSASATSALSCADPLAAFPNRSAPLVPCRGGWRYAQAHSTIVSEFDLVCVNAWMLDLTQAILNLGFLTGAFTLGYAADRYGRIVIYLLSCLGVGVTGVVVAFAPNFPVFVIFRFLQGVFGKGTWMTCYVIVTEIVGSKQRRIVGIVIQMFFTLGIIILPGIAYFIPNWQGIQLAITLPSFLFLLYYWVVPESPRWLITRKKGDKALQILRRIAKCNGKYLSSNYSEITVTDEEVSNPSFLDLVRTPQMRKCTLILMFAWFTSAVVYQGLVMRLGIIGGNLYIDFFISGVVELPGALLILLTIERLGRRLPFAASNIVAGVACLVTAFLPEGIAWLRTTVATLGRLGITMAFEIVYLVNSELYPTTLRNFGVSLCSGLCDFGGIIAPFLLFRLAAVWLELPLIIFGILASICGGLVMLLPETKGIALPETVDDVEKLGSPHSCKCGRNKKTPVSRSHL

T2 sequence (Q86VL8 1-566 isoform Q86VL8-3): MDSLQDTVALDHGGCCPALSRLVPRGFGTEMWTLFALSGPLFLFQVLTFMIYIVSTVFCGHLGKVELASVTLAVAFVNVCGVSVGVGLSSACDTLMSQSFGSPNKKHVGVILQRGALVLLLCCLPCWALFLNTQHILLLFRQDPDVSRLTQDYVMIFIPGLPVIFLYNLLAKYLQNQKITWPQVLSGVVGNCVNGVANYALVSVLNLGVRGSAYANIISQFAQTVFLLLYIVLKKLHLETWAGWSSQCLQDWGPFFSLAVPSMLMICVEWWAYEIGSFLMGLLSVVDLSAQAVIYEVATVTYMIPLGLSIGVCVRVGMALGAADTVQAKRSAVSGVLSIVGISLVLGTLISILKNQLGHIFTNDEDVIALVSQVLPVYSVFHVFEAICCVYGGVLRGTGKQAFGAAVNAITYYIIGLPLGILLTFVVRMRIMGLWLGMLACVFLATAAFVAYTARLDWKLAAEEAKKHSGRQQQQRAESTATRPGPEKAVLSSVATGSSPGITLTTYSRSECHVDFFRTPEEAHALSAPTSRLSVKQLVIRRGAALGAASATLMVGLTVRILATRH

Row | inhibition at 20 µM (hMATE2-K) [%] | inhibition at 20 µM (hOCT2 [2]) [%] | inhibition at 20 µM (hOCT1) [%] | inhibition at 20 µM (hMATE1) [%] | inhibition at 20 µM (hOCT3) [%] | SMILES | higher potency on OCT2 with atenolol as substrate compared with metformin (hOCT2 [1]) [fold]
1 |  |  |  |  |  | CN/C(=N/CCSCc1nc[nH]c1C)NC#N [cimetidine] | 10
2 | ≤ 50 | ≤ 50 |  |  |  | C#Cc1cccc(Nc2ncnc3cc(OCCOC)c(OCCOC)cc23)c1 [erlotinib, Erlotinib] | 
3 | ≤ 50 | ≤ 50 | ≤ 50 | ≤ 50 | ≤ 50 | C[C@H]1Oc2cc(cnc2N)-c2c(nn(C)c2C#N)CN(C)C(=O)c2ccc(F)cc21 [lorlatinib] | 
